ChEMBL document CHEMBL5108055, “Dual A1/A3 Adenosine Receptor Antagonists: Binding Kinetics and Structure-Activity Relationship Studies Using Mutagenesis and Alchemical Binding Free Energy Calculations” (J Med Chem, 2022)

Experiments:
[1] = molecular target: T1, Adenosine receptor A1 (Homo sapiens) (UniProt P30542); assay: Displacement of [3H]-DPCPX from human adenosine A1R expressed in CHO cells membrane assessed as association constant (kon) incubated for 45 mins; assay type: cell membranes; conditions: filed as antagonist
T1 sequence (whole entry): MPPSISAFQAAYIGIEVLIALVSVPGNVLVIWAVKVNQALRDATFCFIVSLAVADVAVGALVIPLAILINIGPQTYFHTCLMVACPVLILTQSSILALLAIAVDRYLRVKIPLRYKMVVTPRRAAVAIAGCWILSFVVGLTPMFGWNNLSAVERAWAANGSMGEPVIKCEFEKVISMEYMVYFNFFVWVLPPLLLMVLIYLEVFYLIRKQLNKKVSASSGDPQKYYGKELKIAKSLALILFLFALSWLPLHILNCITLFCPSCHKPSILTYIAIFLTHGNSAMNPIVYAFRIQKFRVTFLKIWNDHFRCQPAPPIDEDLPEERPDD

[2] = molecular target: T1, Adenosine receptor A1 (Homo sapiens); assay: Displacement of [3H]-DPCPX from human adenosine A1R expressed in CHO cells membrane assessed as residence time; assay type: cell membranes; conditions: filed as antagonist
[3] = molecular target: T1, Adenosine receptor A1 (Homo sapiens); assay: Displacement of [3H]-DPCPX from human adenosine A1R expressed in CHO cells membrane assessed as dissociation constant (koff) preincubated for 1 hr followed by compound addition and measured after 1 hr; assay type: cell membranes; conditions: filed as antagonist
[4] = molecular target: T2, Adenosine receptor A1 (Homo sapiens, UniProt P30542); assay: Displacement of [3H]-DPCPX from human adenosine A1R expressed in CHO cells membrane incubated for 1 hr; assay type: cell membranes
T2 sequence (P30542 whole entry): T1 sequence (whole entry)

[5] = molecular target: T2, Adenosine receptor A1; assay: Antagonist activity at wild type A1R (unknown origin) expressed in CHO-K1 cells assessed as inhibition of NECA reduced forskolin stimulated cAMP accumulation incubated for 30 mins; assay type: functional, cell-based
[6] = molecular target: T3, Adenosine receptor A3 (Homo sapiens, UniProt P0DMS8); assay: Binding affinity to wild type A3R (unknown origin) expressed in Flp-In-CHO cells assessed as dissociation constant by Schild analysis; assay type: cell-based
T3 sequence (P0DMS8 whole entry): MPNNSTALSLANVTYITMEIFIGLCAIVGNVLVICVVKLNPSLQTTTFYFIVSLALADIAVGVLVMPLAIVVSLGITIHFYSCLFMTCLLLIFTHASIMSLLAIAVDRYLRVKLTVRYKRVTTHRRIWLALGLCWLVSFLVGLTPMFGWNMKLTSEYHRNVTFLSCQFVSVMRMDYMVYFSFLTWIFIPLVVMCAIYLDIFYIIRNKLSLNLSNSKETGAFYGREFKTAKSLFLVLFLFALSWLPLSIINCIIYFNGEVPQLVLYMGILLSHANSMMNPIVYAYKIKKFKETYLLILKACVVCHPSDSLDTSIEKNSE

[7] = molecular target: T3, Adenosine receptor A3; assay: Binding affinity to wild type A3R (unknown origin) expressed in CHO-K1 cells assessed as equilibrium binding affinity constant by nanoBRET assay; assay type: cell-based, Flp-In-CHO
[8] = molecular target: T2, Adenosine receptor A1; assay: Binding affinity to wild type A1R (unknown origin) expressed in CHO-K1 cells assessed as equilibrium binding affinity constant by nanoBRET assay; assay type: cell-based
[9] = molecular target: T2, Adenosine receptor A1; assay: Binding affinity to Nluc-A1R (unknown origin) expressed in HEK293 cells by nanoBRET assay; assay type: cell-based
[10] = molecular target: T3, Adenosine receptor A3; assay: Antagonist activity at wild type A3R (unknown origin) expressed in Flp-In-CHO cells assessed as inhibition of NECA reduced forskolin stimulated cAMP accumulation incubated for 30 mins; assay type: functional, cell-based
[11] = molecular target: Adenosine receptor A1 (Homo sapiens, UniProt P30542, H251A); assay: Binding affinity to A1R H251 6.52A mutant (unknown origin) by saturation NanoBRET binding assay
Chain of Adenosine receptor A1 (Homo sapiens, UniProt P30542, H251A) (P30542 whole entry H251A): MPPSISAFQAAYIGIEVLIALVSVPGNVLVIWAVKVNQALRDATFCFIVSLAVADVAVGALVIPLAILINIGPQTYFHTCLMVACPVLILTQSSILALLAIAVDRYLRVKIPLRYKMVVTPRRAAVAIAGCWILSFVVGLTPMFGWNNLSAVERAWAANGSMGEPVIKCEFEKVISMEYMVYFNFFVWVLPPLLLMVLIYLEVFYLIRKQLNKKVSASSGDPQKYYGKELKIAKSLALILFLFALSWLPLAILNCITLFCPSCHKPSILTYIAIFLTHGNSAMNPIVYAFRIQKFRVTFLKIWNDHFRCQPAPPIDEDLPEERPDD

[12] = molecular target: Adenosine receptor A1 (Homo sapiens, UniProt P30542, E172A); assay: Binding affinity to A1R E172 5.30A mutant (unknown origin) by saturation NanoBRET binding assay
Chain of Adenosine receptor A1 (Homo sapiens, UniProt P30542, E172A) (P30542 whole entry E172A): as the sequence (P30542 whole entry H251A) above, with E172A, A251H counted along it

[13] = molecular target: Adenosine receptor A1 (Homo sapiens, UniProt P30542, L250A)
Chain of Adenosine receptor A1 (Homo sapiens, UniProt P30542, L250A) (P30542 whole entry L250A): as the sequence (P30542 whole entry H251A) above, with L250A, A251H counted along it
Description: Binding affinity to A1R L250 6.51A mutant (unknown origin) by saturation NanoBRET binding assay

[14] = molecular target: Adenosine receptor A1 (Homo sapiens, UniProt P30542, S267A); assay: Binding affinity to A1R S267 7.32A mutant (unknown origin) in by saturation NanoBRET binding assay
Chain of Adenosine receptor A1 (Homo sapiens, UniProt P30542, S267A) (P30542 whole entry S267A): as the sequence (P30542 whole entry H251A) above, with A251H, S267A counted along it

[15] = molecular target: T2, Adenosine receptor A1; assay: Binding affinity to wild type A1R (unknown origin) by saturation NanoBRET binding assay
[16] = molecular target: T3, Adenosine receptor A3; assay: Binding affinity to Nluc-A3R (unknown origin) expressed in HEK293 cells by nanoBRET assay; assay type: cell-based
[17] = Binding affinity to A1R Y271 7.36A mutant (unknown origin) by saturation NanoBRET binding assay; parameters: species or system Homo sapiens
[18] = molecular target: T4, Adenosine receptor A3 (Homo sapiens) (UniProt P0DMS8); assay: Binding affinity to N-terminal Nano-luc tagged human adenosine A3R expressed in HEK293 cells membrane assessed as residence time; assay type: cell membranes; conditions: filed as antagonist
T4 sequence (whole entry): T3 sequence (P0DMS8 whole entry)

[19] = molecular target: T4, Adenosine receptor A3 (Homo sapiens); assay: Binding affinity to N-terminal Nano-luc tagged human adenosine A3R expressed in HEK293 cells membrane assessed as dissociation constant (koff); assay type: cell membranes; conditions: filed as antagonist
[20] = molecular target: T4, Adenosine receptor A3 (Homo sapiens); assay: Binding affinity to N-terminal Nano-luc tagged human adenosine A3R expressed in HEK293 cells membrane assessed as association constant (kon); assay type: cell membranes; conditions: filed as antagonist
[21] = molecular target: T3, Adenosine receptor A3; assay: Binding affinity to N-terminal Nano-luc tagged human adenosine A3R expressed in HEK293 cells membrane; assay type: cell membranes
[22] = molecular target: T2, Adenosine receptor A1; assay: Binding affinity to human adenosine A1R expressed in CHO cells membrane; assay type: cell membranes
[23] = molecular target: T4, Adenosine receptor A3 (Homo sapiens); assay: Binding affinity to human adenosine A3R expressed in CHO cells membrane assessed as residence time; assay type: cell membranes; conditions: filed as antagonist
[24] = molecular target: T4, Adenosine receptor A3 (Homo sapiens); assay: Binding affinity to human adenosine A3R expressed in CHO cells membrane assessed as binding constant (kon); assay type: cell membranes; conditions: filed as antagonist
[25] = molecular target: T3, Adenosine receptor A3; assay: Binding affinity to human adenosine A3R expressed in CHO cells membrane; assay type: cell membranes
[26] = molecular target: T4, Adenosine receptor A3 (Homo sapiens); assay: Binding affinity to human adenosine A3R expressed in CHO cells membrane assessed as dissociation constant (koff); assay type: cell membranes; conditions: filed as antagonist

N#Cc1c(N)nc(SCc2ncc[nH]2)c(C#N)c1-c1ccc(O)cc1
K [1]: 2 10^8/M/min
TIME [2]: 0.0183 h
K [3]: 0.92 min⁻¹
Kd [4]: 4.6 nM

Cn1nc(NC(=O)c2ccccc2)c2cc(Nc3ccccc3)ncc21
IC50 [5]: 5.01 nM
Kd [6]: 170 nM
Ki [7]: 234 nM
Ki [8]: > 955 nM
Kd [9]: 851 nM
IC50 [10]: 6.76 nM

COc1cc(Nc2nc(C#N)cc3c(-c4ccccc4)n[nH]c23)cc(OC)c1OC
IC50 [5]: 200 nM
Ki [8]: 4.37 nM
Kd ([11]; read-out: pKd (converted)): 9.33 nM
Kd ([12]; read-out: pKd (converted)): 23.4 nM
Kd [13]: 3.63 nM
Kd ([14]; read-out: pKd (converted)): 7.94 nM
Kd [9]: 1.74 nM
Kd [15]: 13.5 nM

COc1cc(Nc2nc(Cl)cc3c(-c4ccccc4)n[nH]c23)cc(OC)c1OC
Kd [6]: 89.1 nM
Ki [7]: 55 nM
Kd [16]: 85.1 nM
IC50 [10]: 12.3 nM

CCNC(=O)[C@H]1O[C@@H](n2cnc3c(N)ncnc32)[C@H](O)[C@@H]1O [NECA]
pKd [17]: 5.45

COc1cc(Nc2nc(Cl)cc3c(C(C)C)n[nH]c23)cc(OC)c1OC
IC50 [5]: 5.01 nM
Kd [6]: 550 nM
Ki [7]: 631 nM
Ki [8]: 288 nM
Kd [9]: 282 nM
IC50 [10]: 2.82 nM

COc1cc(Nc2nc(C#N)cc3cn[nH]c23)cc(OC)c1OC
IC50 [5]: 10.2 nM
Ki [8]: 229 nM
Kd [9]: 102 nM

COc1cccc(Cn2c(=O)n(CC3CC3)c(=O)c3c2nc2cc(OC)ccn23)c1
TIME [18]: 2.8 h
K [19]: 0.0065 min⁻¹
K [20]: 8.17 10^6/M/min
Kd [21]: 9.11 nM

N#Cc1cc2c(-c3ccccc3)n[nH]c2c(Nc2ccccc2)n1
IC50 [5]: 13.5 nM
Kd [6]: 17 nM
Ki [7]: 43.7 nM
Ki [8]: 214 nM
Kd [16]: 26.3 nM
Kd [9]: 61.7 nM
IC50 [10]: 60.3 nM

CCCn1c(=O)c2[nH]c(-c3ccc(OCC(=O)NCCNC(=O)CCNC(=O)CCCCNC(=O)CCCCCNC(=O)COc4ccc(/C=C/C5=[N+]6C(=Cc7ccc(-c8cccs8)n7[B-]6(F)F)C=C5)cc4)cc3)nc2n(CCC)c1=O
Kd [17]: 71.1 nM
Kd ([11]; read-out: Kd): 145 nM
Kd ([12]; read-out: Kd): 116 nM
Kd [13]: 158 nM
Kd ([14]; read-out: Kd): 71 nM

O=C(CNc1ccccc1)Nc1n[nH]c2cnc(Nc3ccccc3)cc12
IC50 [5]: 6.92 nM
Kd [6]: 490 nM
Ki [7]: 0.115 nM
Ki [8]: 363 nM
Kd [16]: 355 nM
Kd [9]: 282 nM
IC50 [10]: 3.02 nM

CCCn1c(=O)[nH]c(=O)c2[nH]c(C3CCCC3)nc21
Kd [22]: 1.5 nM

COc1cc(Nc2nc(C#N)cc3c(C(C)C)n[nH]c23)cc(OC)c1OC
Kd [6]: 355 nM
Ki [7]: 603 nM
IC50 [10]: 3.8 nM

COc1cc(Nc2nc(CN)cc3c(-c4ccccc4)n[nH]c23)cc(OC)c1OC
IC50 [5]: 22.9 nM
Kd [6]: 257 nM
Ki [7]: 132 nM
Ki [8]: 22.9 nM
Kd [16]: 257 nM
Kd [9]: 40.7 nM
IC50 [10]: 4.9 nM

Cn1nc(NC(=O)CNc2ccccc2)c2cc(Nc3ccccc3)ncc21
IC50 [5]: 2.63 nM
Ki [8]: 295 nM
Kd [9]: 398 nM

CC[C@@H]1CN2C(=O)N(C)C3N=C(c4ccccc4)NC3C2=N1 (some centres undefined)
TIME [23]: 0.08 h
K [24]: 2.35 10^8/M/min
Kd [25]: 0.46 nM
K [26]: 0.208 min⁻¹

Cn1nc(NC(=O)Nc2ccccc2)c2ccnc(NC3CCCCC3)c21
IC50 [5]: 1.41 nM
Kd [6]: 302 nM
Ki [7]: 64.6 nM
Ki [8]: 1000 nM
IC50 [10]: 4.27 nM

COc1cc(Nc2nccc3c(-c4ccccc4)n[nH]c23)cc(OC)c1OC
Kd [6]: 251 nM
Ki [7]: 100 nM
Kd [16]: 74.1 nM
IC50 [10]: 5.13 nM

COc1cc(Nc2nc(CNCc3ccccc3)cc3c(-c4ccccc4)n[nH]c23)cc(OC)c1OC
IC50 [5]: 3.89 nM
Kd [6]: 158 nM
Ki [7]: 85.1 nM
Ki [8]: 204 nM
Kd [16]: 186 nM
Kd [9]: 427 nM
IC50 [10]: 7.24 nM
